Experimental data as given in patent US11033604B2, “Reagents and methods for treating bacterial infection” (priority 2018, dated 2021).
Non-standard residues stand in square brackets, D forms with d. No end group written: not given here.

Experiments:
[1] = tested on: S. aureus SH1000 WT biofilms; experiment: TEM of biofilm extracellular fibrils; format: cell-based, Staphylococcus aureus; details: LB medium, 80 μM
Procedure: FIG. 2. S. aureus biofilm structures become less robust when grown in the presence of designed peptide inhibitors. (A) S. aureus MN8+mCherry™ biofilms were grown on glass substrates for 24 hours and then cells were washed and fixed. Addition of peptide inhibitors (80 μM) reduced adhesion to the slide, causing cells to detach during the wash step. Images are representative of duplicate wells. (B) In S. aureus SH1000 WT biofilms grown in regular LB medium, PSM amyloid fibrils are visible as deposits in spaces between cells (left). Upon addition of the designed peptide AP90 (80 μM), no extracellular fibril deposits were observed (right).
To further investigate the ability of designed peptides to inhibit PSM amyloid formation, fluorescent (mCherry™ ) MN8 biofilms were grown in culture plates with glass bottom wells. After 24 hours at 37° C. the biofilms were gently rinsed with pipetted saline to remove unattached biomass and the remaining attached cells were fixed and imaged. […] These qualitative results are in good agreement with the quantitative results obtained for amyloid inhibition in FIG. 1B. Addition of anti-α-sheet peptides triggered a significant reduction in PSM amyloid formation as measured by ThT fluorescence and also served to weaken the S. aureus biofilms by reducing the PSM amyloid fibril content of the extracellular matrix. […]

[2] = tested on: SA; experiment: Crystal violet biofilm assay; format: cell-based, Staphylococcus aureus
From the text: Furthermore, these same inhibitors are active against EC, SE, and SM.

[3] = tested on: E. coli UTI89 WT biofilms; experiment: In situ ThT assay of EM amyloid in E. coli UTI89 WT biofilms; format: cell-based
Procedure: (§1) FIG. 12. […] Error bars indicate standard deviation of the mean of at least three replicates. Significance values are p<0.05: *, p<0.01: **, p<0.001: ***.
Biofilms of the cystitis E. coli isolate UTI89 were cultivated in YESCA broth with 4% DMSO at 26° C., conditions which are known to elicit increased curli biogenesis. Varying doses of the dimeric α-sheet peptide, AP193, were also added to the cultures at the time of inoculation. AP193 is covalently linked through a single cysteine in each of its constituent monomers. Since DMSO was already present in the biofilm growth medium, AP193 stocks were supplemented with 4% DMSO to improve solubility, and the buffer solution was maintained at high pH (sodium carbonate, pH 9.6) to retain oxidation of the disulfide bond. After 48 hours of growth, biofilms were washed, homogenized, and stained with ThT.
(§2) UTI89 biofilms were also cultivated in the presence of an unstructured peptide, P1, which retains a mixture of L- and D-amino acids but lacks the α-sheet secondary structure of AP193.

[4] = tested on: E. coli UTI89; experiment: Bacterial growth and biofilm versus planktonic proportion; format: cell-based; details: UTI89 biofilm cultures
From the text: as §1, §2

[5] = tested on: bacterial biofilm on glass disks; experiment: Biofilm formation on α-sheet peptide coated glass disk; format: cell-based; details: polydopamine-grafted peptide, FIG. 17 (dimeric AP193)
From the text: FIG. 17. Bacterial adherence and growth of biofilm on glass disks and decreased adhesion of bacteria (GFP signal) and biofilm and amyloid formation (Brightfield image) when glass is coated with α-sheet peptides, shown for dimeric AP193. This is a model for biofilm formation on implanted devices such as prosthetic joints.
We have conjugated α-sheet peptides to other functional molecules to enhance their efficacy at the site of biofilm infection, i.e., the surface of biomedical implants. To this end, we used a polydopamine (PDA) coating approach to facilitate attachment of α-sheet peptides to biomedical implant materials. […]
For α-sheet peptide grafting, 0.5 mg/mL peptide (e.g. AP90, AP193, or P1 as a control) was dissolved in 10 mM Tris pH 8.0 and then applied to PDA-coated substrates for overnight reaction (18 hours). […] First, the concentration of peptide remaining in solution after conjugation was measured by NanoOrange™ assay to determine coupling efficiency and surface density. Second, accessibility of α-sheet peptides on the surface was determined by immunofluorescence; PGPMs were blocked with 5% BSA solution for 12 h, incubated with AlexaFluor®568-conjugated Pac53 antibody (which recognizes α-sheet peptides), and then washed and imaged on a fluorescent microscope to ensure attachment to the disks. […]

RGEmNlSwMNEYSGWtMnLkMGR (RGEMNLSWMNEYSGWTMNLKMGR; not fully specified (residues 4, 6, 8, 16, 18, 20); printed as RGEmNlSwMNEYSGWtMnLkMGR) [AP90]
Extracellular PSM amyloid fibril deposits by TEM [1]: amyloid fibrils could not be found
Biofilm inhibition (crystal violet, FIG. 10) [2]: inhibition

RGEmNyFwMNEYYGWtMnCkMGR (RGE[dM]N[dY]F[dW]MNEYYGW[dT]M[dN]C[dK]MGR) [AP193, hydrophobic AP90 derivative, variant to support different chemical coupling reactions]
EM amyloid content of biofilm (ThT fluorescence), varying doses ([3]; YESCA broth + 4% DMSO, 26° C., 48 h): dose-dependent reduction in ThT fluorescence
ThT fluorescence of biofilm at highest dose ([3]; highest dose): reduced the ThT fluorescence of WT biofilms to levels near those of the ΔcsgA strain
Bacterial killing / growth inhibition [4]: does not kill bacteria or inhibit their growth
Amount of bacterial biofilm on peptide-coated glass disk [5]: dramatic drop in the amount of bacterial biofilm
